Measured values reported in patent US5714361A, “Phosphatase/phosphodiesterase enzyme inhibitors and methods” (priority 1994, dated 1998).

Legend:
[1] = biological target: human prostatic acid phosphatase (PAP) (Homo sapiens, UniProt P15309); experiment: Time-dependent inactivation of prostatic acid phosphatase (residual activity with PNPP); type: biochemical; details: for time-dependent inactivation of PAP: incubation with PAP (2 μg/mL), 100 mM sodium acetate buffer pH 5.0, 25° C.; for protection of PAP against inactivation by FMPP: competitive inhibitors of PAP added
Protocol: Reactions were performed by incubating 1 or 9 with PAP (2 μg/mL) in 100 mM sodium acetate buffer pH 5.0 at 25° C. Residual PAP activity was determined by removing 20 μL aliquots and adding them to a 1 mL solution of 3.0 mM p-nitrophenyl phosphate (PNPP) in 100 mM sodium acetate buffer pH 5.0. After 5 minutes in PNPP, the reactions were quenched with 100 μL of 1.25N NaOH. p-Nitrophenoxide concentration was quantitated from the absorbance at 405 nm, using an extinction coefficient of 18,000 M-1 cm-1. (A) Residual PAP activity after incubation with varying concentrations of 1; 5.0 mM (filled circles), 500 μM (open squares), 125 μM (open triangles), 70 μM (filled diamonds), and 50 μM (open circles). (B) Residual PAP activity after treatment with 6.6 mM FMPP (open triangles), or 23 mM of the phosphonate (15 X Ki) (closed circles).
In this experimental, human prostatic acid phosphatase (PAP) was used as a model enzyme. […] This phosphatase is an important diagnostic marker for prostate cancer, and there is evidence that it may be involved in the regulation of androgen receptor activity in prostate cells.

YOP 51 = YOP 51 (Yersinia enterocolitica, UniProt P15273); experiment: Time-dependent inactivation testing with YOP 51; type: biochemical; details: incubated in a fashion similar to FIG. 1
Sequence of YOP 51 (P15273 whole entry): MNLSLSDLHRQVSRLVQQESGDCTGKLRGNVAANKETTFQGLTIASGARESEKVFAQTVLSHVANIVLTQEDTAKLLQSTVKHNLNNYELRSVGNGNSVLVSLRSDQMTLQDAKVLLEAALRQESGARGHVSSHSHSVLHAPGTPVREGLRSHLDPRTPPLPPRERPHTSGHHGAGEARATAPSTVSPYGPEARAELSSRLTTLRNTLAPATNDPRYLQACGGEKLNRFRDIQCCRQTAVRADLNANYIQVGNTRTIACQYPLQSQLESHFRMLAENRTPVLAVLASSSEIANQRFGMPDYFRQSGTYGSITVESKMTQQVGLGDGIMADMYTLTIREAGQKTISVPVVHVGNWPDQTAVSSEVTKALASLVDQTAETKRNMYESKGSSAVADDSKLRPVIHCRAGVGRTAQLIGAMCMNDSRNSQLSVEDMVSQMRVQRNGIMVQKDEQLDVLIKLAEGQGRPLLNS

Sequence of human prostatic acid phosphatase (PAP) (P15309 33-386): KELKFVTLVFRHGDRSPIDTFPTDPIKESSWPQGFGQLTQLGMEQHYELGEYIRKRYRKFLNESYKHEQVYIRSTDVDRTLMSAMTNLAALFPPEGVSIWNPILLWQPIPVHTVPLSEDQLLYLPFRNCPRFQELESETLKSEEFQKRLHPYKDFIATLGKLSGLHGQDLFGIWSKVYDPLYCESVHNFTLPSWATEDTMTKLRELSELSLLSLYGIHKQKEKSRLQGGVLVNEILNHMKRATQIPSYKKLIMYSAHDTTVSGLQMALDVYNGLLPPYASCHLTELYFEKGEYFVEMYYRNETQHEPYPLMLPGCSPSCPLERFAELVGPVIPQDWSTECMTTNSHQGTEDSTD

O=P(O)(O)Oc1ccc(CF)cc1 [FMPP, 4-(fluoromethyl)phenyl phosphate]
KI (inactivation) ([1]; read-out: Ki (saturation kinetics of the inactivation process), purified PAP): 150 µM

C=C(Br)OP(=O)(OCC)OCC [XVI, Diethyl 1-Bromovinyl Phosphate]
inactivation of YOP 51 (YOP 51): succesful inactivation of the enzyme

O=P(O)(O)Oc1ccc(CBr)cc1 [bromo analogue of FMPP]
time-dependent inactivation of PAP [1]: proved to inactivate the PAP enzyme

O=P(O)(O)Oc1ccc(CCl)cc1 [chloro analogue of FMPP]
time-dependent inactivation of PAP [1]: proved to inactivate the PAP enzyme

O=P(O)(O)O [inorganic phosphate, reference compound]
protection of PAP against inactivation by FMPP [1]: protect against inactivation

O=[N+]([O-])c1cc(CCl)ccc1OP(=O)(O)O [ortho-nitro chloro analogue of FMPP]
potency of PAP inactivation relative to FMPP or its analogues [1]: substantially greater potency | time-dependent inactivation of PAP [1]: succesfully inactivated the PAP enzyme

O=C(O)C(O)C(O)C(=O)O (centres unmarked) [tartaric acid, reference compound]
protection of PAP against inactivation by FMPP [1]: protect against inactivation
